# Biological target: galectin-3 (Homo sapiens (Human), UniProt P17931)
# Assay: Fluorescence anisotropy assay of galectin-3 affinity (compound inhibits galectin binding to a fluorescein tagged saccharide probe)
# Settings: high affinity probe, 50 nM galectin-3, 100 nM albumin
# Protocol: 100 nM albumin was included as a carrier to prevent protein loss at such low concentration of galectin.
# Sequence of galectin-3 (P17931 whole entry): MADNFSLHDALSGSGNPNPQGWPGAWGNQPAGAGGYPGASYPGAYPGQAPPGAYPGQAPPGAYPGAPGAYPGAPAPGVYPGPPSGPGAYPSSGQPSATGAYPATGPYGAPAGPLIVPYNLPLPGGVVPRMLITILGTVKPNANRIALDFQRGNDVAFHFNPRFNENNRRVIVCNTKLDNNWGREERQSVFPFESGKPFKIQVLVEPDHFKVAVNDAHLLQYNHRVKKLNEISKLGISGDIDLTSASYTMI
row,Kd [nM],SMILES
1,60,"OC[C@H]1O[C@H](Sc2cc(Cl)c(Cl)cc2Cl)[C@H](O)[C@@H](n2cc(-c3cc(F)c(F)c(F)c3)nn2)[C@H]1O [Example 36, 2,4,5-Trichlorophenyl 3-deoxy-3-[4-(3,4,5-trifluorophenyl)-1H-1,2,3-triazol-1-yl]-1-thio-α-D-galactopyranoside]"
2,270,"OC[C@H]1O[C@H](Sc2ccc(F)cc2)[C@H](O)[C@@H](n2cc(-c3cc(F)c(F)c(F)c3)nn2)[C@H]1O [Example 30, 4-Fluorophenyl 3-deoxy-3-[4-(3,4,5-trifluorophenyl)-1H-1,2,3-triazol-1-yl]-1-thio-α-D-galactopyranoside]"
3,770,"[O-][S+](c1ccc(Cl)cc1)[C@H]1O[C@H](CO)[C@H](O)[C@H](n2cc(-c3cc(F)c(F)c(F)c3)nn2)[C@H]1O (stereo partly drawn) [Example 26, 4-Chlorophenyl 3-deoxy-3-[4-(3,4,5-trifluorophenyl)-1H-1,2,3-triazol-1-yl]-α-D-galactopyranosyl sulfoxide]"
4,530,"OC[C@H]1O[C@H](Sc2cccc(Cl)c2Cl)[C@H](O)[C@@H](n2cc(-c3cc(F)c(F)c(F)c3)nn2)[C@H]1O [Example 8, 2,3-Dichlorophenyl 3-deoxy-3-[4-(3,4,5-trifluorophenyl)-1H-1,2,3-triazol-1-yl]-1-thio-α-D-galactopyranoside]"
5,480,"OCC1O[C@H](SCCc2ccccc2)C(O)[C@@H](n2cc(-c3cc(F)c(F)c(F)c3)nn2)[C@H]1O (stereo partly drawn) [Example 40, 2-Phenethyl 3-deoxy-3-[4-(3,4,5-trifluorophenyl)-1H-1,2,3-triazol-1-yl]-1-thio-α-D-galactopyranoside]"
6,250,"OC[C@H]1O[C@H](Oc2cccc(Cl)c2)[C@H](O)[C@@H](n2cc(-c3cc(F)c(F)c(F)c3)nn2)[C@H]1O [Example 33, 3-Chlorophenyl 3-deoxy-3-[4-(3,4,5-trifluorophenyl)-1H-1,2,3-triazol-1-yl]-α-D-galactopyranoside]"
7,84,"COc1ccc(Cl)cc1S[C@H]1OC(CO)[C@H](O)[C@H](n2cc(-c3cc(F)c(F)c(F)c3)nn2)C1O (stereo partly drawn) [Example 65, 5-Chloro-2-methoxyphenyl 3-deoxy-1-thio-3-[4-(3,4,5-trifluorophenyl)-1H-1,2,3-triazol-1-yl]-α-D-galactopyranoside]"
8,500,"OC[C@H]1O[C@H](Sc2cccc(OC(F)(F)F)c2)[C@H](O)[C@@H](n2cc(-c3cc(F)c(F)c(F)c3)nn2)[C@H]1O [Example 20, 3-(Trifluoromethoxy)phenyl 3-deoxy-3-[4-(3,4,5-trifluorophenyl)-1H-1,2,3-triazol-1-yl]-1-thio-α-D-galactopyranoside]"
9,1130,"OCC1O[C@H](SCc2ccccc2)C(O)[C@@H](n2cc(-c3cc(F)c(F)c(F)c3)nn2)[C@H]1O (stereo partly drawn) [Example 10, Benzyl 3-deoxy-1-thio-3-[4-(3,4,5-trifluorophenyl)-1H-1,2,3-triazol-1-yl]-1-thio-α-D-galactopyranoside]"
10,410,"COc1ccc(S[C@H]2OC(CO)[C@H](O)[C@H](n3cc(-c4cc(F)c(F)c(F)c4)nn3)C2O)cc1 (stereo partly drawn) [Example 7, 4-Methoxyphenyl 3-deoxy-3-[4-(3,4,5-trifluorophenyl)-1H-1,2,3-triazol-1-yl]-1-thio α-D-galactopyranoside]"
11,24,"OC[C@H]1O[C@H](Sc2ccc(F)c(Br)c2)[C@H](O)[C@@H](n2cc(-c3cc(F)c(F)c(F)c3)nn2)[C@H]1O [Example 60, 3-Bromo-4-fluorophenyl 3-deoxy-3-[4-(3,4,5-trifluorophenyl)-1H-1,2,3-triazol-1-yl]-1-thio-α-D-galactopyranoside]"
12,23,"[O-][S+](c1cccc(Br)c1)[C@H]1O[C@H](CO)[C@H](O)[C@H](n2cc(-c3cc(F)c(F)c(F)c3)nn2)[C@H]1O (stereo partly drawn) [Example 39, 3-Bromophenyl 3-deoxy-3-[4-(3,4,5-trifluorophenyl)-1H-1,2,3-triazol-1-yl]-α-D-galactopyranosyl sulfoxide]"
13,200,"OC[C@H]1O[C@H](Sc2ccc(Cl)cc2)[C@H](O)[C@@H](n2cc(-c3cc(F)c(F)c(F)c3)nn2)[C@H]1O [Example 23, 4-Chlorophenyl 3-deoxy-3-[4-(3,4,5-trifluorophenyl)-1H-1,2,3-triazol-1-yl]-1-thio-α-D-galactopyranoside]"
14,130,"OC[C@H]1O[C@H](Sc2cccc(C(F)(F)F)c2)[C@H](O)[C@@H](n2cc(-c3cc(F)c(F)c(F)c3)nn2)[C@H]1O [Example 14, 3-(Trifluoromethyl)phenyl 3-deoxy-3-[4-(3,4,5-trifluorophenyl)-1H-1,2,3-triazol-1-yl]-1-thio-α-D-galactopyranoside]"
15,13,"O=S(=O)(c1ccc(Cl)c(Cl)c1)[C@H]1O[C@H](CO)[C@H](O)[C@H](n2cc(-c3c(F)c(F)c(F)c(F)c3F)nn2)[C@H]1O [Example 53, 3,4-Dichlorophenyl 3-deoxy-3-[4-(2,3,4,5,6-pentafluorophenyl)-1H-1,2,3-triazol-1-yl]-α-D-galactopyranosyl sulfone]"
16,2,"[O-][S+](c1ccc(Cl)c(Cl)c1)[C@H]1O[C@H](CO)[C@H](O)[C@H](n2cc(-c3c(F)c(F)c(F)c(F)c3F)nn2)[C@H]1O (stereo partly drawn) [Example 42, 3,4-Dichlorophenyl 3-deoxy-3-[4-(2,3,4,5,6-pentafluorophenyl)-1H-1,2,3-triazol-1-yl]-α-D-galactopyranosyl sulfoxide]"
17,570,"OC[C@H]1O[C@H](Oc2ccc(Cl)cc2)[C@H](O)[C@@H](n2cc(-c3cc(F)c(F)c(F)c3)nn2)[C@H]1O [Example 34, 4-Chlorophenyl 3-deoxy-3-[4-(3,4,5-trifluorophenyl)-1H-1,2,3-triazol-1-yl]-α-D-galactopyranoside]"
18,3500,"O=C(N[C@@H]1C(O)[C@@H](Sc2ccc(Cl)c(Cl)c2)OC(CO)[C@@H]1O)c1cc(F)c(F)c(F)c1 (stereo partly drawn) [Example 96, 3,4-dichlorophenyl-3-deoxy-3-(3,4,5-trifluorobenzamido)-1-thio-α-D-galactopyranoside]"
19,49,"OC[C@H]1O[C@H](Sc2cccc(Cl)c2)[C@H](O)[C@@H](n2cc(-c3cc(F)c(F)c(F)c3)nn2)[C@H]1O [Example 19, 3-Chlorophenyl 3-deoxy-3-[4-(3,4,5-trifluorophenyl)-1H-1,2,3-triazol-1-yl]-1-thio-α-D-galactopyranoside]"
20,240,"OCC1O[C@H](SC2CCCC(F)(F)C2)C(O)[C@@H](n2cc(-c3cc(F)c(F)c(F)c3)nn2)[C@H]1O (stereo partly drawn) [Example 76, 3,3′-difluoro-cyklohexyl 3-deoxy-3-[4-(3,4,5-trifluorophenyl)-1H-1,2,3-triazol-1-yl]-1-thio-α-D-galactopyranoside]"
21,41,"[O-][S+](c1cncc(Cl)c1)[C@H]1OC(CO)[C@H](O)[C@H](n2cc(-c3cc(F)c(F)c(F)c3)nn2)C1O (single isomer, unassigned; isomer 2) [Example 94, 5-Chloropyridin-3-yl 3-deoxy-3-[4-(3,4,5-trifluorophenyl)-1H-1,2,3-triazol-1-yl]-α-D-galactopyranosyl sulfoxide, isomer 2]"
22,960,"OCC1O[C@H](Sc2cccc3ccccc23)C(O)[C@@H](n2cc(-c3cc(F)c(F)c(F)c3)nn2)[C@H]1O (stereo partly drawn) [Example 18, 1-Naphthyl 3-deoxy-1-thio-3-[4-(3,4,5-trifluorophenyl)-1H-1,2,3-triazol-1-yl]-1-thio-α-D-galactopyranoside]"
23,960,"CN(C)c1cccc2cc(S(=O)(=O)[C@H]3OC(CO)[C@H](O)[C@H](n4cc(-c5cc(F)c(F)c(F)c5)nn4)C3O)ccc12 (stereo partly drawn) [Example 95, 5-Dimethylamino-naphtalen-2-yl 3-deoxy-3-[4-(3,4,5-trifluorophenyl)-1H-1,2,3-triazol-1-yl]-α-D-galactopyranosyl sulfone]"
24,180,"OCC1O[C@H](Sc2ccc3ccccc3c2)C(O)[C@@H](n2cc(-c3cc(F)c(F)c(F)c3)nn2)[C@H]1O (stereo partly drawn) [Example 12, 2-Naphtyl 3-deoxy-3-[4-(3,4,5-trifluorophenyl)-1H-1,2,3-triazol-1-yl]-1-thio-α-D-galactopyranoside]"
25,1010,"CCCC(=O)c1cn([C@@H]2[C@@H](O)[C@@H](Sc3ccc(Cl)c(Cl)c3)O[C@H](CO)[C@@H]2O)nn1 [Example 102, 3,4-Dichlorophenyl 3-deoxy-3-[4-(propyl-carbonyl)-1H-1,2,3-triazol-1-yl]-1-thio-α-D-galactopyranoside]"
26,106,"[O-][S+](c1cncc(Cl)c1)[C@H]1OC(CO)[C@H](O)[C@H](n2cc(-c3cc(F)c(F)c(F)c3)nn2)C1O (single isomer, unassigned; isomer 1) [Example 93, 5-Chloropyridin-3-yl 3-deoxy-3-[4-(3,4,5-trifluorophenyl)-1H-1,2,3-triazol-1-yl]-α-D-galactopyranosyl sulfoxide, isomer 1]"
27,510,"OCC1O[C@H](Sc2ccccn2)C(O)[C@@H](n2cc(-c3cc(F)c(F)c(F)c3)nn2)[C@H]1O (stereo partly drawn) [Example 21, 2-Pyridyl 3-deoxy-3-[4-(3,4,5-trifluorophenyl-1H-1,2,3-triazol-1-yl]-)-1-thio-α-D-galactopyranoside]"
28,420,"CCOc1cccc(S[C@H]2O[C@H](CO)[C@H](O)[C@H](n3cc(-c4cc(F)c(F)c(F)c4)nn3)[C@H]2O)c1 [Example 3, 3-Ethoxyphenyl 3-deoxy-3-[4-(3,4,5-trifluorophenyl)-1H-1,2,3-triazol-1-yl]-1-thio-α-D-galactopyranoside]"
29,520,"OC[C@H]1O[C@H](Sc2ccc(Br)cc2)[C@H](O)[C@@H](n2cc(-c3cc(F)c(F)c(F)c3)nn2)[C@H]1O [Example 15, 4-Bromophenyl 3-deoxy-3-[4-(3,4,5-trifluorophenyl)-1H-1,2,3-triazol-1-yl]-1-thio-α-D-galactopyranoside]"

row,SMILES,Kd [nM]
1,"[O-][S+](c1cncc(Br)c1)[C@H]1O[C@H](CO)[C@H](O)[C@H](n2cc(-c3cc(F)c(F)c(F)c3)nn2)[C@H]1O (single isomer, unassigned; isomer 1) [Example 90, 5-Bromopyridin-3-yl 3-deoxy-3-[4-(3,4,5-trifluorophenyl)-1H-1,2,3-triazol-1-yl]-α-D-galactopyranosyl sulfoxide, isomer 1]",28
